Data as given in ChEMBL document CHEMBL5303573, “Mapping human microbiome drug metabolism by gut bacteria and their genes” (Nature, 2019).

conditions: roseburia intestinalis, 12 h, 2 µM
Description: The drug is tested on Roseburia intestinalis strain: L1-82 for biotransformation. The drug concentrations were measured before and after a 12-h incubation by liquid-chromatography-coupled mass spectrometry (LC–MS)

SMILES	Bacterial Biotransformation
CC(=O)OCC(=O)[C@@]12N=C(C)O[C@@H]1C[C@H]1[C@@H]3CCC4=CC(=O)C=C[C@]4(C)[C@H]3[C@@H](O)C[C@@]12C [DEFLAZACORT]	Compound metabolized
O=C(O)c1cc(/N=N/c2ccc(S(=O)(=O)Nc3ccccn3)cc2)ccc1O [SULFASALAZINE]	Compound metabolized
COc1ccccc1OCCNCC(O)COc1cccc2[nH]c3ccccc3c12 (stereo not given) [CARVEDILOL]	Compound NOT metabolized

conditions: bacteroides eggerthii, 12 h, 2 µM
Description: The drug is tested on Bacteroides eggerthii strain: DSM20697 for biotransformation. The drug concentrations were measured before and after a 12-h incubation by liquid-chromatography-coupled mass spectrometry (LC–MS)

SMILES	Bacterial Biotransformation
CC(=O)OCC(=O)[C@@]12N=C(C)O[C@@H]1C[C@H]1[C@@H]3CCC4=CC(=O)C=C[C@]4(C)[C@H]3[C@@H](O)C[C@@]12C [DEFLAZACORT]	Compound metabolized
O=C(O)c1cc(/N=N/c2ccc(S(=O)(=O)Nc3ccccn3)cc2)ccc1O [SULFASALAZINE]	Compound metabolized
COc1ccccc1OCCNCC(O)COc1cccc2[nH]c3ccccc3c12 (stereo not given) [CARVEDILOL]	Compound NOT metabolized

conditions: bacteroides thetaiotaomicron, 12 h, 2 µM
Description: The drug is tested on Bacteroides thetaiotaomicron strain: 7330 for biotransformation. The drug concentrations were measured before and after a 12-h incubation by liquid-chromatography-coupled mass spectrometry (LC–MS)

SMILES	Bacterial Biotransformation
CC(=O)OCC(=O)[C@@]12N=C(C)O[C@@H]1C[C@H]1[C@@H]3CCC4=CC(=O)C=C[C@]4(C)[C@H]3[C@@H](O)C[C@@]12C [DEFLAZACORT]	Compound metabolized
O=C(O)c1cc(/N=N/c2ccc(S(=O)(=O)Nc3ccccn3)cc2)ccc1O [SULFASALAZINE]	Compound metabolized
COc1ccccc1OCCNCC(O)COc1cccc2[nH]c3ccccc3c12 (stereo not given) [CARVEDILOL]	Compound metabolized

test: The drug is tested on Escherichia coli strain: BW25113 for biotransformation. The drug concentrations were measured before and after a 12-h incubation by liquid-chromatography-coupled mass spectrometry (LC–MS); conditions: 2 µM

SMILES	Bacterial Biotransformation
CC(=O)OCC(=O)[C@@]12N=C(C)O[C@@H]1C[C@H]1[C@@H]3CCC4=CC(=O)C=C[C@]4(C)[C@H]3[C@@H](O)C[C@@]12C [DEFLAZACORT]	Compound metabolized
O=C(O)c1cc(/N=N/c2ccc(S(=O)(=O)Nc3ccccn3)cc2)ccc1O [SULFASALAZINE]	Compound metabolized
COc1ccccc1OCCNCC(O)COc1cccc2[nH]c3ccccc3c12 (stereo not given) [CARVEDILOL]	Compound metabolized

test: The drug is tested on Clostridium asparagiforme strain: DSM15981 for biotransformation. The drug concentrations were measured before and after a 12-h incubation by liquid-chromatography-coupled mass spectrometry (LC–MS); format: ADME; parameters: dose 2 uM, timepoint 0 vs 12 hours; conditions: enterocloster asparagiformis, 2 µM

SMILES	Bacterial Biotransformation
CC(=O)OCC(=O)[C@@]12N=C(C)O[C@@H]1C[C@H]1[C@@H]3CCC4=CC(=O)C=C[C@]4(C)[C@H]3[C@@H](O)C[C@@]12C [DEFLAZACORT]	Compound metabolized
O=C(O)c1cc(/N=N/c2ccc(S(=O)(=O)Nc3ccccn3)cc2)ccc1O [SULFASALAZINE]	Compound metabolized
COc1ccccc1OCCNCC(O)COc1cccc2[nH]c3ccccc3c12 (stereo not given) [CARVEDILOL]	Compound metabolized

test: The drug is tested on Dorea formicigenerans strain: ATCC27755 for biotransformation. The drug concentrations were measured before and after a 12-h incubation by liquid-chromatography-coupled mass spectrometry (LC–MS); conditions: 2 µM

SMILES	Bacterial Biotransformation
CC(=O)OCC(=O)[C@@]12N=C(C)O[C@@H]1C[C@H]1[C@@H]3CCC4=CC(=O)C=C[C@]4(C)[C@H]3[C@@H](O)C[C@@]12C [DEFLAZACORT]	Compound metabolized
O=C(O)c1cc(/N=N/c2ccc(S(=O)(=O)Nc3ccccn3)cc2)ccc1O [SULFASALAZINE]	Compound metabolized
COc1ccccc1OCCNCC(O)COc1cccc2[nH]c3ccccc3c12 (stereo not given) [CARVEDILOL]	Compound NOT metabolized

test: The drug is tested on Blautia luti strain: DSM14534 for biotransformation. The drug concentrations were measured before and after a 12-h incubation by liquid-chromatography-coupled mass spectrometry (LC–MS); format: ADME; parameters: dose 2 uM, timepoint 0 vs 12 hours; conditions: 2 µM

SMILES	Bacterial Biotransformation
CC(=O)OCC(=O)[C@@]12N=C(C)O[C@@H]1C[C@H]1[C@@H]3CCC4=CC(=O)C=C[C@]4(C)[C@H]3[C@@H](O)C[C@@]12C [DEFLAZACORT]	Compound metabolized
O=C(O)c1cc(/N=N/c2ccc(S(=O)(=O)Nc3ccccn3)cc2)ccc1O [SULFASALAZINE]	Compound metabolized
COc1ccccc1OCCNCC(O)COc1cccc2[nH]c3ccccc3c12 (stereo not given) [CARVEDILOL]	Compound metabolized

test: The drug is tested on Bacteroides fragilis strain: HMW610 for biotransformation. The drug concentrations were measured before and after a 12-h incubation by liquid-chromatography-coupled mass spectrometry (LC–MS); conditions: 2 µM

SMILES	Bacterial Biotransformation
CC(=O)OCC(=O)[C@@]12N=C(C)O[C@@H]1C[C@H]1[C@@H]3CCC4=CC(=O)C=C[C@]4(C)[C@H]3[C@@H](O)C[C@@]12C [DEFLAZACORT]	Compound metabolized
O=C(O)c1cc(/N=N/c2ccc(S(=O)(=O)Nc3ccccn3)cc2)ccc1O [SULFASALAZINE]	Compound metabolized
COc1ccccc1OCCNCC(O)COc1cccc2[nH]c3ccccc3c12 (stereo not given) [CARVEDILOL]	Compound NOT metabolized

test: The drug is tested on Collinsella intestinalis strain: DSM13280 for biotransformation. The drug concentrations were measured before and after a 12-h incubation by liquid-chromatography-coupled mass spectrometry (LC–MS); conditions: 2 µM

SMILES	Bacterial Biotransformation
CC(=O)OCC(=O)[C@@]12N=C(C)O[C@@H]1C[C@H]1[C@@H]3CCC4=CC(=O)C=C[C@]4(C)[C@H]3[C@@H](O)C[C@@]12C [DEFLAZACORT]	Compound metabolized
O=C(O)c1cc(/N=N/c2ccc(S(=O)(=O)Nc3ccccn3)cc2)ccc1O [SULFASALAZINE]	Compound metabolized
COc1ccccc1OCCNCC(O)COc1cccc2[nH]c3ccccc3c12 (stereo not given) [CARVEDILOL]	Compound NOT metabolized

test: The drug is tested on Eubacterium ventriosum strain: ATCC27560 for biotransformation. The drug concentrations were measured before and after a 12-h incubation by liquid-chromatography-coupled mass spectrometry (LC–MS); format: ADME; parameters: dose 2 uM, timepoint 0 vs 12 hours; conditions: 2 µM

SMILES	Bacterial Biotransformation
CC(=O)OCC(=O)[C@@]12N=C(C)O[C@@H]1C[C@H]1[C@@H]3CCC4=CC(=O)C=C[C@]4(C)[C@H]3[C@@H](O)C[C@@]12C [DEFLAZACORT]	Compound metabolized
O=C(O)c1cc(/N=N/c2ccc(S(=O)(=O)Nc3ccccn3)cc2)ccc1O [SULFASALAZINE]	Compound metabolized
COc1ccccc1OCCNCC(O)COc1cccc2[nH]c3ccccc3c12 (stereo not given) [CARVEDILOL]	Compound metabolized

conditions: victivallis vadensis, 12 h, 2 µM
Description: The drug is tested on Victivallis vadensis strain: ATCC BAA-548 for biotransformation. The drug concentrations were measured before and after a 12-h incubation by liquid-chromatography-coupled mass spectrometry (LC–MS)

SMILES	Bacterial Biotransformation
CC(=O)OCC(=O)[C@@]12N=C(C)O[C@@H]1C[C@H]1[C@@H]3CCC4=CC(=O)C=C[C@]4(C)[C@H]3[C@@H](O)C[C@@]12C [DEFLAZACORT]	Compound metabolized
O=C(O)c1cc(/N=N/c2ccc(S(=O)(=O)Nc3ccccn3)cc2)ccc1O [SULFASALAZINE]	Compound metabolized
COc1ccccc1OCCNCC(O)COc1cccc2[nH]c3ccccc3c12 (stereo not given) [CARVEDILOL]	Compound NOT metabolized

test: The drug is tested on Blautia hansenii strain: DSM20583 for biotransformation. The drug concentrations were measured before and after a 12-h incubation by liquid-chromatography-coupled mass spectrometry (LC–MS); conditions: 2 µM

SMILES	Bacterial Biotransformation
CC(=O)OCC(=O)[C@@]12N=C(C)O[C@@H]1C[C@H]1[C@@H]3CCC4=CC(=O)C=C[C@]4(C)[C@H]3[C@@H](O)C[C@@]12C [DEFLAZACORT]	Compound metabolized
O=C(O)c1cc(/N=N/c2ccc(S(=O)(=O)Nc3ccccn3)cc2)ccc1O [SULFASALAZINE]	Compound metabolized
COc1ccccc1OCCNCC(O)COc1cccc2[nH]c3ccccc3c12 (stereo not given) [CARVEDILOL]	Compound metabolized

test: The drug is tested on Bacteroides vulgatus strain: ATCC8482 for biotransformation. The drug concentrations were measured before and after a 12-h incubation by liquid-chromatography-coupled mass spectrometry (LC–MS); conditions: phocaeicola vulgatus, 2 µM

SMILES	Bacterial Biotransformation
CC(=O)OCC(=O)[C@@]12N=C(C)O[C@@H]1C[C@H]1[C@@H]3CCC4=CC(=O)C=C[C@]4(C)[C@H]3[C@@H](O)C[C@@]12C [DEFLAZACORT]	Compound metabolized
O=C(O)c1cc(/N=N/c2ccc(S(=O)(=O)Nc3ccccn3)cc2)ccc1O [SULFASALAZINE]	Compound metabolized
COc1ccccc1OCCNCC(O)COc1cccc2[nH]c3ccccc3c12 (stereo not given) [CARVEDILOL]	Compound metabolized

conditions: segatella copri, 12 h, 2 µM
Description: The drug is tested on Prevotella copri strain: DSM18205 for biotransformation. The drug concentrations were measured before and after a 12-h incubation by liquid-chromatography-coupled mass spectrometry (LC–MS)

SMILES	Bacterial Biotransformation
CC(=O)OCC(=O)[C@@]12N=C(C)O[C@@H]1C[C@H]1[C@@H]3CCC4=CC(=O)C=C[C@]4(C)[C@H]3[C@@H](O)C[C@@]12C [DEFLAZACORT]	Compound metabolized
O=C(O)c1cc(/N=N/c2ccc(S(=O)(=O)Nc3ccccn3)cc2)ccc1O [SULFASALAZINE]	Compound metabolized
COc1ccccc1OCCNCC(O)COc1cccc2[nH]c3ccccc3c12 (stereo not given) [CARVEDILOL]	Compound metabolized

test: The drug is tested on Bacteroides cellulosilyticus strain: DSM14838 for biotransformation. The drug concentrations were measured before and after a 12-h incubation by liquid-chromatography-coupled mass spectrometry (LC–MS); conditions: 2 µM

SMILES	Bacterial Biotransformation
CC(=O)OCC(=O)[C@@]12N=C(C)O[C@@H]1C[C@H]1[C@@H]3CCC4=CC(=O)C=C[C@]4(C)[C@H]3[C@@H](O)C[C@@]12C [DEFLAZACORT]	Compound metabolized
O=C(O)c1cc(/N=N/c2ccc(S(=O)(=O)Nc3ccccn3)cc2)ccc1O [SULFASALAZINE]	Compound metabolized
COc1ccccc1OCCNCC(O)COc1cccc2[nH]c3ccccc3c12 (stereo not given) [CARVEDILOL]	Compound metabolized

test: The drug is tested on Subdoligranulum variabile strain: DSM15176 for biotransformation. The drug concentrations were measured before and after a 12-h incubation by liquid-chromatography-coupled mass spectrometry (LC–MS); conditions: 2 µM

SMILES	Bacterial Biotransformation
CC(=O)OCC(=O)[C@@]12N=C(C)O[C@@H]1C[C@H]1[C@@H]3CCC4=CC(=O)C=C[C@]4(C)[C@H]3[C@@H](O)C[C@@]12C [DEFLAZACORT]	Compound metabolized
O=C(O)c1cc(/N=N/c2ccc(S(=O)(=O)Nc3ccccn3)cc2)ccc1O [SULFASALAZINE]	Compound metabolized
COc1ccccc1OCCNCC(O)COc1cccc2[nH]c3ccccc3c12 (stereo not given) [CARVEDILOL]	Compound NOT metabolized

test: The drug is tested on Bacteroides sp. WH2 strain: WH2 for biotransformation. The drug concentrations were measured before and after a 12-h incubation by liquid-chromatography-coupled mass spectrometry (LC–MS); conditions: bacteroides sp. wh2, 12 h, 2 µM

SMILES	Bacterial Biotransformation
CC(=O)OCC(=O)[C@@]12N=C(C)O[C@@H]1C[C@H]1[C@@H]3CCC4=CC(=O)C=C[C@]4(C)[C@H]3[C@@H](O)C[C@@]12C [DEFLAZACORT]	Compound metabolized
O=C(O)c1cc(/N=N/c2ccc(S(=O)(=O)Nc3ccccn3)cc2)ccc1O [SULFASALAZINE]	Compound metabolized
COc1ccccc1OCCNCC(O)COc1cccc2[nH]c3ccccc3c12 (stereo not given) [CARVEDILOL]	Compound metabolized

conditions: bacteroides thetaiotaomicron, 12 h, 2 µM; remark: another data set of the same source
Description: The drug is tested on Bacteroides thetaiotaomicron strain: VPI-5482 for biotransformation. The drug concentrations were measured before and after a 12-h incubation by liquid-chromatography-coupled mass spectrometry (LC–MS)

SMILES	Bacterial Biotransformation
CC(=O)OCC(=O)[C@@]12N=C(C)O[C@@H]1C[C@H]1[C@@H]3CCC4=CC(=O)C=C[C@]4(C)[C@H]3[C@@H](O)C[C@@]12C [DEFLAZACORT]	Compound metabolized
O=C(O)c1cc(/N=N/c2ccc(S(=O)(=O)Nc3ccccn3)cc2)ccc1O [SULFASALAZINE]	Compound metabolized
COc1ccccc1OCCNCC(O)COc1cccc2[nH]c3ccccc3c12 (stereo not given) [CARVEDILOL]	Compound metabolized

conditions: akkermansia muciniphila, 12 h, 2 µM
Description: The drug is tested on Akkermansia muciniphila strain: ATCC BAA-835 for biotransformation. The drug concentrations were measured before and after a 12-h incubation by liquid-chromatography-coupled mass spectrometry (LC–MS)

SMILES	Bacterial Biotransformation
CC(=O)OCC(=O)[C@@]12N=C(C)O[C@@H]1C[C@H]1[C@@H]3CCC4=CC(=O)C=C[C@]4(C)[C@H]3[C@@H](O)C[C@@]12C [DEFLAZACORT]	Compound metabolized
O=C(O)c1cc(/N=N/c2ccc(S(=O)(=O)Nc3ccccn3)cc2)ccc1O [SULFASALAZINE]	Compound metabolized
COc1ccccc1OCCNCC(O)COc1cccc2[nH]c3ccccc3c12 (stereo not given) [CARVEDILOL]	Compound metabolized

test: The drug is tested on Bifidobacterium breve strain: DSM20213 for biotransformation. The drug concentrations were measured before and after a 12-h incubation by liquid-chromatography-coupled mass spectrometry (LC–MS); conditions: 2 µM

SMILES	Bacterial Biotransformation
CC(=O)OCC(=O)[C@@]12N=C(C)O[C@@H]1C[C@H]1[C@@H]3CCC4=CC(=O)C=C[C@]4(C)[C@H]3[C@@H](O)C[C@@]12C [DEFLAZACORT]	Compound metabolized
O=C(O)c1cc(/N=N/c2ccc(S(=O)(=O)Nc3ccccn3)cc2)ccc1O [SULFASALAZINE]	Compound metabolized
COc1ccccc1OCCNCC(O)COc1cccc2[nH]c3ccccc3c12 (stereo not given) [CARVEDILOL]	Compound NOT metabolized
